Where “and” joins values, the source holds several entries; their conditions need not be identical. Equal entries are not always repeated. Where two headings read alike, the source gives them in different places.
What was measured:
[1] = test system: rat platelet aggregation; assay: In vitro inhibition of rat platelet aggregation (Born and Cross method); format: cell-based; settings: Rattus norvegicus, Platelet, rat plasma, read-out: Platelet Aggregation Inhibition (PAI); for inhibition at 8300 µM: plasma concentration 8.30×10^-3 molar; for inhibition at 4150 µM: plasma concentration 4.15×10^-3 molar
Procedure: Platelet aggregation was measured according to the method of Born and Cross (8) by using rat and human plasma.

[2] = test system: human platelet aggregation; assay: In vitro inhibition of human platelet aggregation (Born and Cross method); format: cell-based; settings: read-out: Platelet Aggregation Inhibition (PAI); for inhibition at 6250 µM: plasma concentration 6.25×10^-3 molar; for inhibition at 8300 µM: plasma concentration 8.30×10^-3 molar; for inhibition at 17000 µM: plasma concentration 17.0×10^-3 molar
Procedure: Platelet aggregation was measured according to the method of Born and Cross (8) by using rat and human plasma. The results are summarized below in Tables I and II.
Key : PC = Plasma Concentration: PAI = Platelet Aggregation
*The percent of inhibition was calculated using the method described by
McKenzie (Proc. Soc. Exp. Biol. Med. 137: 662, 1971).

[3] = test system: gastric mucosa; settings: rat, in vivo
Procedure: For this reason this compound has not been included in further in vivo experimentation. However, the other two compounds were well tolerated and satisfactory low acute toxicity values were found (approximately 500 mg/kg for both substances).

[4] = test system: human platelet aggregation; assay: Human platelet aggregation induced by ADP and epinephrine after oral administration to humans; format: in vivo; settings: Tables III and IV
Procedure: (§1) In the in vivo tests on humans, the two selected compounds were administered per os during six consecutive days at equimolar doses: 200 mg three times a day of 2-acetoxy-4-trifluoromethylbenzoic acid and 248 mg three times a day of 2-phosphonoxy-4-trifluoromethylbenzoic acid.
(§2) Blood was collected on the first, fourth and seventh day of the test and the platelet aggregation induced by ADP, epinephrine and collagen was determined according to the above-mentioned Born method.
(§3) EFFECT OF 2-ACETOXY-4-TRIFLUOROMETHYLBENZOIC ACID
(§4) AND 2-PHOSPHONOXY-4-TRIFLUOROMETHYLBENZOIC
ACID ON PLATELET AGGREGATION INDUCED BY ADP AND
EPINEPHRINE AFTER ORAL ADMINISTRATION TO HUMANS*
*The figures express the concentration (μM) that produces irreversible

[5] = test system: human platelet aggregation; assay: Human platelet aggregation induced by collagen after oral administration to humans; format: in vivo; settings: collagen 33.3 μg/m, one value per human
Procedure: The significance of the parameters employed in Table IV (x, y and delay) is indicated; and
as §1, §2, §3, §4
ACID ON PLATELET AGGREGATION INDUCED BY
COLLAGEN AFTER ORAL ADMINISTRATION TO HUMANS*.
*An increase of delay time and x and a decrease of y with respect to
control indicate an inhibitory effect on platelet aggregation (see FIG.

[6] = test system: blood coagulation factors and fibrinolysis; format: in vivo, human; settings: oral; for Euglobin lysis time: Von Kaulas's test / Activated kaolin test / Activated partial thromboplastin test: APTI / Howell's test / Plasma prothrombine test: Quick test / Serum prothrombin time / Bleeding time, Duke test / Clotting time / Thromboelastogram K / Thromboelastogram r: mean ± s.e.m.; for Euglobin lysis time: Von Kaulas's test: decrease vs control = drug effect; for Activated kaolin test / Activated partial thromboplastin test: APTI / Howell's test / Plasma prothrombine test: Quick test / Serum prothrombin time: decrease vs control = inhibitory effect; for Bleeding time, Duke test / Clotting time / Thromboelastogram K / Thromboelastogram r: increase vs control = inhibitory effect
Procedure: The values r and k (in parameter 15 of Table V) correspond to blood (b). Their significance appears from the Figure.
as §1, §2
The potential anticoagulant and fibrinolytic activity of the claimed compounds has therefore likewise been investigated. For this purpose, with the same blood samples used for the determination of in vivo antiaggregating action on humans, the following parameters were examined: clotting time, bleeding time (Duke test), tourniquet test, Parrot's test, plasma prothrombine test (Quick test), activated partial thromboplastin test (APTT), activated Kaolin test, Howell's test, serum prothrombin time, euglobulin lysis time, Von Kaula's test, degradation products of fibrinogen (DPF), platelet count, clot retraction, hematocrit and thromboelastogram.
EFFECT OF 2-ACETOXY-4-TRIFLUOROMETHYLBENZOIC ACID AND 2-PHOSPHONOXY-4-TRIF
ZOIC ACID ON BLOOD COAGULATION FACTORS AND FIBRINOLYSIS*.
treated with 2-acetoxy-4-trifluoromethylbenzoic acid and on 6 humans
treated with 2-phos phonoxy-4-trifluoromethylbenzoic acid. An increase of
the mean values (±s.e.m.) of parameters 1 and 2 or a decrease of
parameters 5,6,7,8,9,10 and 11 with respect to control, mean an inhibitor
effec of drugs on the blood coagulation and fibrinolysis.
**An increase of r and k values with respect to control, indicates an
inhibitory effect of the drugs on blood coagulation and also on platelet
aggregation. These figures are indicated in FIG. 2 which corresponds to a
normal thromboelastogram.

[7] = 4th day, increase vs control = inhibition

`O=C(O)c1ccc(C(F)(F)F)cc1O` [2-hydroxy-4-trifluoromethylbenzoic acid] gave an inhibition at 6250 µM ([1]; ADP 4.1×10^-6 M, plasma concentration 6.25×10^-3 molar) of 60.2%, an inhibition at 8300 µM ([1]; ADP 4.1×10^-6 M) of 89.2% and an inhibition at 4150 µM ([1]; Collagen 33.3 μg/ml) of 27.2%. It also gave an inhibition at 8300 µM ([1]; Collagen 33.3 μg/ml) of 48.3%, an inhibition at 6250 µM ([2]; ADP 1.6×10^-6 M) of 70% and an inhibition at 8300 µM ([2]; ADP 1.6×10^-6 M) of 100%. It also gave an inhibition at 8300 µM ([2]; Collagen 33.3 mcg/ml) of 58%, an inhibition at 17000 µM ([2]; Collagen 33.3 mcg/ml) of 75% and an inhibition at 3300 µM ([2]; Epinephrine 1.4×10^-6 M, plasma concentration 3.30×10^-3 molar) of 32%. For the same compound, the inhibition at 8100 µM ([2]; Epinephrine 1.4×10^-6 M, plasma concentration 8.10×10^-3 molar) was 91% and the “gastro-intestinal disturbances (in words)” value [3] was “high incidence of serious gastro-intestinal disturbances, including bleeding of the gastric mucosa and peptic ulcers”.

Work on `CC(=O)Oc1cc(C(F)(F)F)ccc1C(=O)O` [2-acetoxy-4-trifluoromethylbenzoic acid] yielded an inhibition at 830 µM ([1]; ADP 4.1×10^-6 M, plasma concentration 0.83×10^-3 molar) of 26%, an inhibition at 2080 µM ([1]; ADP 4.1×10^-6 M, plasma concentration 2.08×10^-3 molar) of 37.5% and an inhibition at 4150 µM ([1]; ADP 4.1×10^-6 M) of 51.9%. The inhibition at 8300 µM ([1]; ADP 4.1×10^-6 M) was 93.7%, the inhibition at 4150 µM ([1]; Collagen 33.3 μg/ml) was 34.5% and the inhibition at 8300 µM ([1]; Collagen 33.3 μg/ml) was 52.7%. It also gave an inhibition at 6250 µM ([2]; ADP 1.6×10^-6 M) of 22.5%, an inhibition at 8300 µM ([2]; ADP 1.6×10^-6 M) of 38.6% and an inhibition at 4100 µM ([2]; Collagen 33.3 mcg/ml, plasma concentration 4.10×10^-3 molar) of 37.5%. The inhibition at 8300 µM ([2]; Collagen 33.3 mcg/ml) was 62%, the inhibition at 17000 µM ([2]; Epinephrine 1.4×10^-6 M) was 74% and the “in vivo action on human platelet aggregation (in words)” value [4] was “far more effective compound”. The “y (collagen-induced aggregation curve)” value ([5]; 4th day, decrease vs control = inhibition) was 41 mm and 45 mm, the “delay (collagen-induced aggregation curve)” value [5, 7] was 60 xc and 72 xc and the “x (collagen-induced aggregation curve)” value [5, 7] was 22 mm and 24 mm and 17 mm and 25 mm. For the same compound, the “delay (collagen-induced aggregation curve)” value ([5]; 7th day, increase vs control = inhibition) was 108 xc and 60 xc and 96 xc and 72 xc and 84 xc, the “Euglobin lysis time: Von Kaulas's test” value ([6]; 4th day) was 140.0 ± 12.3 min and the Activated kaolin test ([6]; 4th day) was 0.797±0.03. For the same compound, the “Activated partial thromboplastin test: APTI” value ([6]; 4th day) was 0.720±0.03, the “Howell's test” value ([6]; 4th day) was 0.723±0.04 and the “Plasma prothrombine test: Quick test” value ([6]; 4th day) was 0.938±0.02. The Serum prothrombin time ([6]; 4th day) was 38.8 ± 2.7 s, the “Bleeding time, Duke test” value ([6]; 4th day) was 133.0 ± 19.3 s and the Clotting time ([6]; 4th day) was 521.6 ± 29.7 s. The “Thromboelastogram K” value ([6]; 4th day) was 24.6±1.6 cm, the Thromboelastogram r ([6]; 4th day) was 19.6±1.2 cm and the “Euglobin lysis time: Von Kaulas's test” value ([6]; 7th day) was 136.1 ± 11.5 min. The Activated kaolin test ([6]; 7th day) was 0.890±0.02, the “Activated partial thromboplastin test: APTI” value ([6]; 7th day) was 0.890±0.03 and the “Howell's test” value ([6]; 7th day) was 0.807±0.04. For the same compound, the “Plasma prothrombine test: Quick test” value ([6]; 7th day) was 0.933±0.02, the Serum prothrombin time ([6]; 7th day) was 37.3 ± 3.9 s and the “Bleeding time, Duke test” value ([6]; 7th day) was 116.0 ± 13.8 s. The Clotting time ([6]; 7th day) was 526.6 ± 25.6 s, the “Thromboelastogram K” value ([6]; 7th day) was 22.1±1.5 cm and the Thromboelastogram r ([6]; 7th day) was 21.6±3.6 cm. For the same compound, the “anticoagulant action (in words)” value ([6]; humans) was “exert an anticoagulant action”, the “blood fibrinolytic activity (in words)” value ([6]; humans) was “increase of the blood fibrinolytic activity” and the Clot retraction ([6]; days not separated) was “NEGATIVE”. For the same compound, the “Degradation products of fibrinogen: DPF” value ([6]; days not separated) was “NEGATIVE”, the “Parrot's test” value ([6]; days not separated) was “POSITIVE IN TWO HUMANS” and the Tourniquet test ([6]; days not separated) was “NEGATIVE”.
